What all share (type): cell-based, human
One assay relates to SNU251 cells. The experiment in a line: Proliferation assay (Cell Counting Kit-8). The settings on record: Cx43-restored SNU251 vs EV, 100 and 200 µM olaparib, 96 h, beginning at 48 h. The procedure: (§1) Proliferation of tumour cell lines was evaluated using the Cell Counting Kit-8 (Dojindo Molecular Technologies). This kit comprises WST-8, a highly water-soluble tetrazolium salt, which upon reduction by cellular dehydrogenases of viable cells, gives rise to a yellow formazan dye that is solube in cell culture media and can be quantitated. Briefly, similar number of cells (1 000-5 000) were plated in 96-well plates (Corning) and left to grow for the desired time period under different treatment conditions. Then, medium was renewed (100 µL volume/well) and 10 µL of CCK-8 reagent were added to each well. Plates were incubated in the dark for 3 h at 37 °C, and absorbance was measured at 450 nm in a NanoQuant Infinite 200 plate reader (Tecan).
In order to complement previous results with another clinically relevant PARPi-treated cancer, assays were repeated with BRCA1 mutated ovarian cancer cell line SNU251, efficiently nucleofected with EV or Cx43-restituting plasmids (Figure 8). SNU251 wild type (EV) cells had no native Cx43 expression, as assayed by western blot ( Figure 8.A).
(§2) To further characterize its involvement in BRCA1/2 mutated cancer, Cx43 was restituted by plasmid transfection in BRCA1 mutated TNBC and ovarian carcinoma cell lines, HCC1937 and SNU251, respectively. […]

Assay [1] has as its system HCC1937 cells. Kind of assay: Proliferation assay (Cell Counting Kit-8). The conditions noted are these: Cx43_HCC1937 compared to EV_HCC1937; 100 and 200 µM olaparib, over 96 h, all concentrations and time points. The procedure: as §1
Cell viability was either relativized to untreated controls for each cell line at each time point, in order to account for the already reduced proliferation of Cx43-restituted cells (top graph) or reported as raw absorbance value (bottom graph).
as §2
A general note: Formazan colour is commonly taken as a measure of viable cells.

The test system of assay [2] is HCC1937 cells. Kind of assay: Cell culture under Anoikis-inducing conditions, western blot and imaging. As for the experimental part:
Protein extracts were mixed with loading buffer, which consisted of 10 % (v/v) β-mercaptoethanol (Sigma-Aldrich), 10 % SDS, 50 % (v/v) glycerol, 200 mM Tris-HCl pH 6.8 and 0.1 % bromophenol blue (Sigma-Aldrich). They were boiled at 95 °C for 8 min and 20-30 µg protein were loaded into 8, 10 or 15 % acrylamide/bis-acrylamide self-made gels, depending on the molecular weight of the target protein/s to investigate. Gels were run at 80 V for approximately 2 h using a Mini-PROTEAN Tetra electrophoresis system (BioRad), and then transferred to methanol-preactivated polyvinylidene fluoride (PVDF) membranes (Millipore) at 100 V and 4 °C for 1-1.5 h with a Mini Trans-Blot Electrophoretic Transfer Cell (BioRad). Afterwards, membranes with the transferred proteins were stained with ATX Ponceau S red staining solution (Sigma-Aldrich) for 10 min at room temperature, photographed in an Amersham Imager 600 (GE Healthcare) and unstained with distilled water. They were then blocked for 1 h at room temperature with 5 % skim milk (Sigma-Aldrich) diluted in TBST buffer (Tris-buffered saline TBS composed of 20 mM Tris and 150 mM NaCl, supplemented with 0.05 % (v/v) Tween-20, Sigma-Aldrich) with shaking. Next, membranes were incubated overnight at 4 °C with rotation with primary antibodies of interest (see antibody references in Table 3), diluted in 5 % skim milk in TBST. After 4-5 TBST washes (5 min/wash), membranes were incubated for 1 h at room temperature with rotation with secondary antibodies conjugated to horseradish peroxidase (HRP) (see antibody references in Table 3), diluted in 5 % skim milk in TBST. Membranes were rinsed again 4-5 times (5 min/wash) with TBST and the signal was developed with Pierce ECL Western Blotting Substrate (Thermo Fisher Scientific), in either a LAS-3000 Imager (Fujifilm) or an Amersham Imager 600 (GE Healthcare). When necessary, membranes were stripped for 15 min with a pH 2.2 buffer composed of […], 0.5 g SDS and 5 mL Tween20 in 500 mL distilled water. Once stripped, membranes were washed with TBST for 15 min, re-blocked with 5 % skim milk and re-probed with the antibodies of choice. Ponceau staining and western blot images were analysed and their band intensities quantitated with Image J software.
HCC1937 cells were cultured under anchorage-independent growth conditions for 48 h. For this purpose, non-adherent 90 mm polystyrene Petri dishes (Thermo Fisher Scientific) were coated with 10 mg/ml poly-HEMA (Sigma-Aldrich), which makes the dish surface highly repellent to cells, promoting their culture under forced-suspension conditions. […] Images of the cultures were taken at 0 and 48 h, and cell pellets were then collected for western blot analysis.
Anoikis refers to a form of programmed cell death induced by disruption of cell adhesion of normal epithelial cells that detach from the surrounding extracellular matrix. Anoikis resistance has been identified as a hallmark of cancer cells, as survival of normally adherent cells in suspension conditions can enable them to metastasize to distant sites. It has been studied both in the presence and absence of serum; serum deprivation constitutes another way of measuring cell resilience under adverse circumstances, as fetal bovine serum (FBS) contains a variety of growth factors and other elements required for cell survival in culture. When cultured under anchorage-independent/forced suspension conditions for 48 h (Figure 10.C), Cx43_HCC1937 cells formed smaller multicellular aggregates (dashed red lines) than EV_HCC1937, particularly in the absence of FBS.
A general note: In western blotting, separated proteins are transferred to a membrane and probed.

Where [3] appears, read: Cx43_HCC1937, 50 µM olaparib, 48 h Anoikis-inducing conditions.
Where [4] appears, read: EV_HCC1937, 50 µM olaparib, 48 h Anoikis-inducing conditions.

As for `O=C(c1cc(Cc2n[nH]c(=O)c3ccccc23)ccc1F)N1CCN(C(=O)C2CC2)CC1` [Olaparib, olaparib], the “response to olaparib (proliferation)” value in the assay on SNU251 cells is recorded as “significantly better response to olaparib than EV cells”. For the same compound, the “cell viability (proliferation assay)” value in the assay with HCC1937 cells [1] was “robust and significant decrease in cell viability”. In the assay with HCC1937 cells [2] (50 µM olaparib, 48 h, effect more pronounced in Cx43_HCC1937 than EV), the “cell aggregates in suspension” value is given as “partial disintegration of these clusters”. Further, the “Total protein PARylation” value in the assay on HCC1937 cells [2] (setting [3]) is recorded as “decrease”; with HCC1937 cells [2] (setting [4]), “rise”. In addition, the “cleaved caspase 3 levels” value in the assay with HCC1937 cells [2] (setting [3]) is “further increased this cleavage”; in the assay on HCC1937 cells [2] (setting [4]), “no significant changes”. The γH2AX result with HCC1937 cells [2] (Cx43_HCC1937, 50 µM olaparib, 48 h Anoikis-inducing conditions, absence of serum) is given as “further exacerbated this outcome”.

The values above are taken from patent EP4463162B1, “CONNEXIN 43 FOR USE IN TREATING BRCA1/2-MUTATED CANCER” (Fundación Profesor Novoa Santos, priority 2022, dated 2023).
